Results on 86 molecules are retold here after a melting point compilation (Tetko et al.; mined from patent text by program, amines drawn as free bases though some values may be those of a salt).

The melting point is the temperature, or range, at which the solid turns liquid.

As to `Cc1ccc(S(=O)(=O)N2CC2CBr)cc1` (stereo unspecified), the melting point is 75 to 78 °C.

Consider `CC(C(=O)O)c1ccc(C(=O)c2ccc(Cl)s2)cc1` (stereo unspecified), for which the melting point came out at 137 °C. The same measure for `CC(=O)Nc1nc2c(Nc3ncnc4cc(Cl)ccc34)cccc2s1`: 230 °C. With `CC(=O)CC(=O)NC1CCCCCCC1`, the melting point came out at 44 °C. Turning to `Cc1nc(Nc2ccc(Cl)cc2)sc1C(=O)c1sc(Nc2ccc(Cl)cc2)nc1C`, the melting point lay in the range of 184 to 186 °C. `Cc1oc(-c2ccccc2)nc1COc1ccc(C=C2SC(=O)NC2=O)cn1` displayed a melting point of 225 to 226 °C.

The molecule `COC(=O)c1ccccc1Nc1c(OC)ccc2ccccc12` returned a melting point of 144 to 146 °C.

In turn, `C=CCNC(=O)N1CC(Oc2cccc(Br)c2)C1` gave a melting point of 90 to 92 °C.

The molecule `CC(=O)Nc1c(C(=O)c2ccccc2)[nH]c2cc(C#N)ccc12` returned a melting point of 244 to 246 °C. The same measure for `CC(=O)C1CCC(CNC(=O)c2cccnc2Oc2ccc(F)cc2)CC1` (stereo unspecified): 110 to 111 °C; for `CC(C)(C)C(=O)Nc1ccccc1-c1cc2ccccc2[nH]1`: 132 to 136 °C.

As for `CCOC(=O)N(N=C[N+](=O)[O-])c1ccc(C(=O)OC)c(S(=O)(=O)NC(C)(C)C)c1`, the melting point was 142 to 145 °C. As for `Cc1cncc(Oc2cccc(NC(=O)N3CCc4c(cnc5[nH]nc(Br)c45)C3)c2)n1`, the melting point lay within 221 to 223 °C.

On to `Cc1cc(C)cc(/C=C/c2ccc(O)cc2)c1`, for which the melting point turned out to be 142 °C. On to `C=CCN1CC(C)N(C(c2ccsc2)c2cccc(O)c2)CC1C` (stereo unspecified), for which the melting point fell in the range of 140 to 142 °C. The same measure for `CCC(=O)n1ccc(-c2ccc(C(=O)N3Cc4cccn4Cc4ccccc43)cc2)n1`: 150 to 152 °C; for `Oc1ccc(C2=COc3ccccc3O2)cc1`: 137 to 140 °C; for `COc1cc(OC)c2c(C)c(CCN3CCN(c4ccccc4)CC3)c(=O)oc2c1`: 112 to 114 °C. The molecule `COc1ccccc1SCC1SCCN1C(=S)CC(C)=O` (stereo unspecified) showed a melting point of 62 to 64 °C. For `Cc1nn(-c2c(Cl)cc(C(F)(F)F)cc2Cl)c(N)c1SC(C)(F)F` the value was 123 to 125 °C. In turn, `CC(=O)Nc1ccc(S(=O)(=O)N2CCN(c3c(F)cc4c(=O)c(C(=O)O)cn(C5CC5)c4c3F)CC2)cc1` displayed a melting point of 282 to 284 °C. For `CN1CCN(c2ccnc3c(NC(=O)c4ccccc4[N+](=O)[O-])cccc23)C1=O` the value was 226 to 228 °C; for `Cc1nc(C(=O)COc2ccc(CC3SC(=O)NC3=O)cc2)c(C)o1` (stereo unspecified), 161 to 162 °C. For `O=C(O)CCCCCCCNS(=O)(=O)c1ccc([N+](=O)[O-])cc1` the value was 126 to 127 °C; for `Fc1ccc(-c2nc(-c3ccccc3)cn2-c2ccncc2)cc1`, 90 to 92 °C. The same measure for `Cc1cn2cccc(OCc3c(Cl)ccc(S(=O)(=O)N4CCC[C@H]4C(=O)N4CCN(C(=O)c5ccc(C=NN)cc5)CC4)c3Cl)c2n1`: 159 to 161 °C; for `C=C(CCCCCCCCCCCCCCCCCC)C(=O)OC`: 48 to 50 °C; for `C=CCN1CCCN(c2cc(Cl)ccc2C)C1=S`: 71 to 72 °C.

With `CCCCCCCCOc1ccc(-c2ncc(Br)cn2)cc1`, the melting point was 95 °C.

`CCOP(=O)(/C=C/c1cn(-c2ccccc2)nc1OCc1ccc(OCc2nc(-c3ccccc3)cn2C)c(OC)c1)OCC` gave a melting point of 144 to 145 °C. The molecule `OC(CCl)COc1ccc2c(c1)OCC(c1ccccc1)C2` (stereo unspecified) registered a melting point of 74 to 76 °C. As to `O=C(C(Cl)Cl)N1CCCCCCC1`, the melting point turned out to be 83 °C. In turn, `O=c1ccc2c(Br)nccc2[nH]1` came in with a melting point of 272 to 274 °C. The same measure for `CC=Cc1cnn(C)c1S(=O)(=O)NC(=O)Nc1nc(OC)cc(OC)n1`: 154 to 156 °C; for `COc1ccc(C2SC(=O)NC2C(=O)NCCO[N+](=O)[O-])cc1` (stereo unspecified): 142 to 143 °C; for `Clc1ccc(-c2nc(Sc3cccs3)[nH]c2-c2ccc(Cl)cc2)cc1`: 219 °C. `CCOC(=O)c1cn2c(cc(Cl)c3ccc(Br)cc32)n1` had a melting point of 206 to 207 °C.

As to `COc1ccc(CCN(C)CCOc2ccc(NC(=O)c3cc(SC)cc4c(=O)c5ccccc5[nH]c34)cc2)cc1OC`, the melting point came to 150 °C. In turn, `O=C(O)c1cc2c(-c3ccccc3)n[nH]c2s1` gave a melting point of over 260 °C. `CSc1nc(CC2CCN(c3ccccc3)CC2)nc(C(=O)NCC(=O)O)c1O` registered a melting point of 156 to 157 °C. With `CC(=O)[C@@H]1CC[C@@H](C)C[C@H]1O`, the melting point was in the range of 46 to 46.5 °C. The same measure for `Cc1oc2c(OC(C)C#N)cccc2c1C` (stereo unspecified): 53 to 55 °C. The same measure for `COc1cc(-c2ncn(-c3cc(OC)c(OC)c(OC)c3)c2-c2cc(OC)c(OC)c(OC)c2)cc(OC)c1OC`: 169 to 171 °C. Molecule `O=C(c1ccc(Cl)cc1)c1c(N2C(=O)c3ccccc3C2=O)sc(Br)c1CN1CCN(c2ccccc2)CC1` came in with a melting point of 186 to 193 °C. On to `Cc1cc(C=O)c(OCCCCOc2c(C=O)cc(C)cc2C=O)c(C=O)c1`, for which the melting point came to 205 °C. `O=C(O)C1Oc2cc(Cl)c(S(=O)(=O)c3cccc(F)c3)cc2O1` (stereo unspecified) registered a melting point of 161 to 163 °C. For `Nc1cc(N)cc(C(c2c(O)c3c(oc2=O)CCCCCC3)C2CC2)c1` (stereo unspecified) the value was 87 °C; for `COc1cc(C(=O)C#CC(=O)O)cc(OC)c1OC`, 130 to 132 °C. Regarding `Cc1cn(-c2ccc(N3C[C@H](COS(C)(=O)=O)OC3=O)cc2F)cn1`, the melting point lay in the range of 151 to 153 °C.

In turn, `C=CCCCCC1CCC(CC)(CC(=O)O)c2[nH]c3c(C)cccc3c21` (stereo unspecified) registered a melting point of 111 to 112 °C. With `OCCCc1c[nH]c2ccc(-n3cnnc3)cc12`, the melting point fell in the range of 205 to 207 °C.

In turn, `CON=Cc1nc2c(N)nc3cc(Br)ccc3c2s1` displayed a melting point of 262 to 264 °C. The molecule `CC1(C)CC(Nc2nc(NC3CC(C)(C)NC(C)(C)C3)nc(NC3CC(C)(C)NC(C)(C)C3)n2)CC(C)(C)N1` had a melting point of 219 to 221 °C. `Cc1cc(C)cc(C(O)(CCc2cncn2Cc2ccccc2)c2cc(C)cc(C)c2)c1`: the melting point fell in the range of 120 to 124 °C. Molecule `CCN1C(=O)C(C)(C)C(=O)N(C)c2cc(CN(CCn3ccc4oc(C)cc4c3=O)Cc3cccnc3C=O)ccc21` yielded a melting point of 147 to 149 °C.

For the molecule `CCN1CC(NC(=O)c2cc(Cl)c(N)cc2OC)C=N1` (stereo unspecified), the melting point lay in the range of 132 to 134 °C. In the case of `NCC1CN(c2c(F)cc3c(=O)c(C(=O)O)cn(C4CC4)c3c2F)C1`, the melting point lay in the range of 190 to 195 °C. The same measure for `O=C(O)C1c2cccnc2NN1C(=O)O` (stereo unspecified): 270 to 285 °C; for `O=C(CCl)Nc1ccc2c(c1NC(=O)Cc1ccccc1)C(=O)c1ccccc1C2=O`: 184 to 185 °C. The same measure for `Cc1ccc(-c2ccc3c(c2)C=C(C(=O)Nc2ccc(CNC(CO)CO)cc2)CC3)cc1`: 189 to 193 °C.

Consider `CCOC(=O)c1cc2c(OCC3CO3)cccc2[nH]1` (stereo unspecified), for which the melting point was 142 to 144 °C. The same measure for `O=C(O)c1ccc(-c2nn(Cc3ccccc3)c3ccccc23)cc1`: 205 to 207 °C. Consider `CCCCOc1cc(/C=C(\OCC)C(=O)O)ccc1OCCc1ccc(N(C)S(C)(=O)=O)cc1`, for which the melting point is 112 °C. With `CCCCCS(=O)(=O)NC(=O)CCc1cc(C(C)C)nn1Cc1ccc(Cl)cc1Cl`, the melting point is 115 to 117 °C. In turn, `N=C1N(c2ccccc2)CCN1c1ccccc1[N+](=O)[O-]` had a melting point of 257 to 259 °C.

As for `CC(Oc1ccc2nc(NC(=O)NCCN3CCN(Cc4ccccc4)CC3)sc2c1)c1c(Cl)ccc(F)c1Cl` (stereo unspecified), the melting point was 125 to 139 °C.

`CCCCCCCCCCCCCCOc1cc(C(=O)OC)ccc1OC`: the melting point was in the range of 77 to 79 °C. The molecule `O=C(O)c1ccnc(-c2cccc3cc(Cc4cccc(C(F)(F)F)c4)sc23)c1` returned a melting point of 231 to 232 °C.

With `COc1cc2cc(C(=O)N3CC(CCl)c4c3cc(OCc3ccccc3)c3ncccc43)[nH]c2c(OC)c1OC` (stereo unspecified), the melting point lay within 182 to 184 °C. The same measure for `C=C1COc2ccc(C(C)=O)cc2C(Cc2ccccc2)(S(=O)(=O)c2ccccc2)C1` (stereo unspecified): 131 to 132 °C; for `O=S(c1[nH]c(-c2ccc(Cl)cc2)c(Br)c1Br)C(F)(F)F` (stereo unspecified): 173 to 176 °C. Regarding `OCc1ccccc1CBr`, the melting point fell in the range of 61 to 63 °C. Molecule `CC(C)C[C@H](NC(=O)c1ccc2c(c1)Nc1ccccc1S2)C(=O)N1CCC2(C1)OCCO2` showed a melting point of 75 to 77 °C. For `O=C1C=CC(O)(c2nc3ccccc3s2)C(Cl)=C1` (stereo unspecified) the value was 140 to 143 °C. The same measure for `CC(C)(C)c1cc(C=Cc2cc(C=Cc3cc(C(C)(C)C)cc(C(C)(C)C)c3)cc(CBr)c2)cc(C(C)(C)C)c1`: 222 to 223 °C; for `Cc1nc(-c2cccc(CN3C(=O)C4(COc5cc6c(cc54)CCO6)c4ccccc43)c2)no1` (stereo unspecified): 209 to 213 °C; for `N#CC1(c2ccc(F)cc2)CCC(N2CCN(c3cccnn3)CC2)CC1` (stereo unspecified): 189 °C. For the molecule `CC(C)(C)OC(=O)N1C[C@@H](CC(=O)COCC[Si](C)(C)C)[C@H]2NC(=O)[C@H]21`, the melting point lay within 89 to 91 °C. For `CCn1c(=O)c(C(=O)O)nc2ccc(F)cc21` the value was 162 to 164 °C; for `CCCCc1cc2cc(O)c(Cl)c(Cl)c2s1`, 35 °C; for `Cc1ccc(C#Cc2ccc(NC(=O)OC(C)(C)C)c([N+](=O)[O-])c2)cc1`, 164 to 165 °C.

As to `CO[Si](OC)(OC)c1ccc(C#Cc2ccc(C#Cc3ccc([Si](OC)(OC)OC)cc3)cc2)cc1`, the melting point lay in the range of 164 to 166 °C. Molecule `O=C1c2ccccc2C(=O)N1C1CCCn2c1nc(-c1ccncc1)cc2=O` (racemic) gave a melting point of 211 to 213 °C. `CCCc1c(OCC=CS(=O)(=O)c2ccc(CC(=O)O)c(F)c2)ccc(C(C)=O)c1O` registered a melting point of 249 to 251 °C. For `CC(=O)Nc1nc2c(Oc3cc(-c4ccc(C(F)(F)F)cc4NCC4CCCCC4)ncn3)cccc2s1` the value was 232 to 234 °C. For `Cc1c(C(=O)Nc2ccc(N3CCN(CCO)CC3)c(C#N)c2)cnn1-c1ccc(F)cc1` the value was 179 to 180 °C.
